Here are results for 33 compounds from patent US20050090524A1, “Novel adamantane derivatives” (priority 2002, published 2005).

Where a name gives a salt, the structure may show the parent alone.

For one series, the target named is T1, P2X7 receptor (Homo sapiens, UniProt Q99572).
T1 construct: 200 μl of a suspension of THP-1 cells; endogenous in cells; host or cells: THP-1 cells
T1 sequence (Q99572 1-595): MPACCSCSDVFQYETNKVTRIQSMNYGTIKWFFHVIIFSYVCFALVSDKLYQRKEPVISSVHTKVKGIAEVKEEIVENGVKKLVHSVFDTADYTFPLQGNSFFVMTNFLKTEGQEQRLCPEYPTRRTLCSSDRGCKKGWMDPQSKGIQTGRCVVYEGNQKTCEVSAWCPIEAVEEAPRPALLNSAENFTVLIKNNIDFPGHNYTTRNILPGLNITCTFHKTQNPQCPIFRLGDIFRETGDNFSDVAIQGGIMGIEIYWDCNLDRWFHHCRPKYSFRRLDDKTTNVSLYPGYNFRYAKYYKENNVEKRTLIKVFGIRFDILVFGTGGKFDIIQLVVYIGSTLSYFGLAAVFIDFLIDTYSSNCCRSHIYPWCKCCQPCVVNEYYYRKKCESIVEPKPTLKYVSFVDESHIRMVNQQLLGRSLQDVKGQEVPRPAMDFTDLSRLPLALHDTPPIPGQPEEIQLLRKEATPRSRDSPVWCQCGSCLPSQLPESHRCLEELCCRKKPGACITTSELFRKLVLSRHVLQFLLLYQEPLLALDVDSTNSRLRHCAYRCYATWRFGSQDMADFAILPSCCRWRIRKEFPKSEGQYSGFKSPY
Briefly: P2X7 receptor antagonist test: bbATP-induced ethidium bromide fluorescence in THP-1 cells. It counts as cell-based. To be noted: bbATP agonist, 37° C. for one hour, negative logarithm of concentration reducing bbATP agonist activity by 50%. An excerpt: Certain compounds such as benzoylbenzoyl adenosine triphosphate (bbATP) are known to be agonists of the P2X7 receptor, effecting the formation of pores in the plasma membrane (Drug Development Research (1996), 37(3), p.126). Consequently, when the receptor is activated using bbATP in the presence of ethidium bromide (a fluorescent DNA probe), an increase in the fluorescence of intracellular DNA-bound ethidium bromide is observed. The increase in fluorescence can be used as a measure of P2X7 receptor activation and therefore to quantify the effect of a compound on the P2X7 receptor.
In this manner, each of the title compounds of the Examples was tested for antagonist activity at the P2X7 receptor. Thus, the test was performed in 96-well flat bottomed microtitre plates, the wells being filled with 250 μl of test solution comprising 200 μl of a suspension of THP-1 cells (2.5×10^6 cells/ml) containing 10^−4M ethidium bromide, 25 μl of a high potassium buffer solution containing 10^−5M bbATP, and 25 μl of the high potassium buffer solution containing 3×10^−5M test compound. The plate was covered with aplastics sheet and incubated at 37° C. for one hour. The plate was then read in a Perkin-Elmer fluorescent plate reader, excitation 520 nm, emission 595 nm, slit widths: Ex 15 nm, Em 20 nm. For the purposes of comparison, bbATP (a P2X7 receptor agonist) and pyridoxal 5-phosphate (a P2X7 receptor antagonist) were used separately in the test as controls. From the readings obtained, a pIC50 figure was calculated for each test compound, this figure being the negative logarithm of the concentration of test compound necessary to reduce the bbATP agonist activity by 50%.

On to `CNCCCN(C)c1ccc2c(C(=O)NCC34CC5CC(CC(C5)C3)C4)c(Cl)ccc2n1` (as salt: TFA) [Example 208, N-(1-Adamantylmethyl)-6-chloro-2-{methyl[3-(methylamino)propyl]amino}quinoline-5-carboxamide], for which the melting point is 195 to 200 °C.

`CNCCCc1cccc2c(C(=O)NCC34CC5CC(CC(C5)C3)C4)ccnc12` (as salt: hydrochloride): the melting point is 243 to 246 °C (dec.).

In turn, `O=C(NCC12CC3CC(CC(C3)C1)C2)c1cccc2nc(CCCNCCCO)ccc12` (as salt: hydrochloride) had a melting point of 150 to 152 °C.

For the compound `Cc1ccc2nc(NCCNCCO)ccc2c1NC(=O)CC12CC3CC(CC(C3)C1)C2` (as salt: hydrochloride), the melting point is 227 to 230 °C.

In the case of `O=C(CC12CC3CC(CC(C3)C1)C2)Nc1c(Cl)ccc2nc(NCCNCCO)ccc12` (as salt: hydrochloride), the melting point lay in the range of 219 to 223 °C.

Compound `Cc1ccc2nc(N3CCN(CCO)CC3)ccc2c1NC(=O)CC12CC3CC(CC(C3)C1)C2` (as salt: hydrochloride) displayed a melting point of 224 °C.

Compound `Cc1ccc2nc(N3CCC(N)CC3)ccc2c1NC(=O)CC12CC3CC(CC(C3)C1)C2` (as salt: hydrochloride) gave a melting point of 295 °C.

Compound `Cc1ccc2nc(N3CC[C@H](N)C3)ccc2c1NC(=O)CC12CC3CC(CC(C3)C1)C2` (as salt: hydrochloride) registered a melting point of 291 °C.

As to `Cc1ccc2nc(N3CC[C@H](NC(=O)N4CC[C@H](N)C4)C3)ccc2c1NC(=O)CC12CC3CC(CC(C3)C1)C2` (as salt: hydrochloride), the melting point is 270 °C.

The compound `O=C(CC12CC3CC(CC(C3)C1)C2)Nc1c(Cl)ccc2nc(CC[C@@H](O)CO)ccc12` (as salt: hydrochloride) yielded a melting point of 147 to 150 °C.

`CNCCNc1ccc2c(NC(=O)CC34CC5CC(CC(C5)C3)C4)c(Cl)ccc2n1` (as salt: hydrochloride) gave a melting point of 232 to 234 °C.

`O=C(CC12CC3CC(CC(C3)C1)C2)Nc1c(Cl)ccc2nc(NCCCNCCO)ccc12` (as salt: hydrochloride) displayed a melting point of 264 to 266 °C.

Compound `CNCCCc1ccc2c(C(=O)NCC34CC5CC(CC(C5)C3)C4)cccc2n1` (as salt: hydrochloride) returned a melting point of 158 to 160 °C.

Compound `CNCCCc1ccc2c(C(=O)NCC34CC5CC(CC(C5)C3)C4)c(Cl)ccc2n1` (as salt: hydrochloride) [Example 167, N-(1-Adamantylmethyl)-6-chloro-2-[3-(methylamino)propyl]quinoline-5-carboxamide Sesquihydrochloride] came in with a melting point of 184 to 185 °C.

Take `O=C(NCC12CC3CC(CC(C3)C1)C2)c1c(Cl)ccc2nc(CN3CCNCC3)ccc12` (as salt: hydrochloride) [Example 170, N-(1-Adamantylmethyl)-6-chloro-2-(piperazin-1-ylmethyl)quinoline-5-carboxamide Hydrochloride]: the melting point is 208 °C (dec.).

For `CCNCCCc1ccc2c(C(=O)NCC34CC5CC(CC(C5)C3)C4)cccc2n1` (as salt: hydrochloride) [Example 173, N-(1-Adamantylmethyl)-2-[3-(ethylamino)propyl]quinoline-5-carboxamide Dihydrochloride], the melting point lay within 150 to 155 °C.

The compound `O=C(CC12CC3CC(CC(C3)C1)C2)Nc1cccc2nc(CCCNCCCO)ccc12` (as salt: hydrochloride) [Example 177, 2-(1-Adamantyl)-N-(2-{3-[(3-hydroxypropyl)amino]propyl}quinolin-5-yl)acetamide Dihydrochloride] displayed a melting point of 130 to 135 °C.

On to `Cc1ccc2nc(N3CCNCC3)ccc2c1NC(=O)CC12CC3CC(CC(C3)C1)C2` (as salt: hydrochloride) [Example 178, 2-(1-Adamantyl)-N-(6methyl-2-piperazin-1-ylquinolin-5-yl)acetamide Dihydrochloride], for which the melting point turned out to be 276 °C.

In turn, `Cc1ccc2nc(N3CCC(NCCO)CC3)ccc2c1NC(=O)CC12CC3CC(CC(C3)C1)C2` (as salt: hydrochloride) [Example 181, 2-(1-Adamantyl)-N-(2-{4-[(2-hydroxyethyl)amino]piperidin-1-yl}-6-methylquinolin-5-yl)acetamide Dihydrochloride] registered a melting point of 306 °C.

In the case of `O=C(CC12CC3CC(CC(C3)C1)C2)Nc1c(Cl)ccc2nc(N3CCNCC3)ccc12` (as salt: hydrochloride) [Example 207, 2-(1-Adamantyl)-N-(6-chloro-2-piperazin-1-ylquinolin-5-yl)acetamide], the melting point lay within 280 to 283 °C.

For the compound `O=C(NCC12CC3CC(CC(C3)C1)C2)c1cc(CCCNCCCO)nc2ccccc12` (as salt: salt) [Example 168, N-(1-Adamantylmethyl)-2-{3-[(3-hydroxypropyl)amino]propyl}quinoline-4-carboxamide Benzoic Acid Salt], the melting point is 147 to 148 °C (dec.).

On to `O=C(NCC12CC3CC(CC(C3)C1)C2)c1cccc2ncccc12` (as salt: trifluoroacetate), for which the melting point is 125 to 127 °C (dec.).

`O=C(CC12CC3CC(CC(C3)C1)C2)Nc1c(Cl)ccc2nc(CN[C@@H]3CCNC3)ccc12` (as salt: trifluoroacetate): the melting point was in the range of 90 to 91 °C.

`O=C(CC12CC3CC(CC(C3)C1)C2)Nc1c(Cl)ccc2nc(CN3CCNCC3)ccc12` (as salt: trifluoroacetate) registered a melting point of 132 to 136 °C.

On to `Cc1ccc2nc(NCCO)ccc2c1NC(=O)CC12CC3CC(CC(C3)C1)C2` (as salt: trifluoroacetic acid salt) [Example 13, 2-(1-Adamantyl)-N-{2[(2-hydroxyethyl)amino]-6-methylquinolin-5-yl}acetamide], for which the melting point lay in the range of 103 to 107 °C.

Consider `Cc1ccc2nc(N(C)CCN(C)C)ccc2c1NC(=O)CC12CC3CC(CC(C3)C1)C2` (as salt: trifluoroacetic acid salt) [Example 14, 2-(1-Adamantyl)-N-{2-[[2-(dimethylamino)ethyl](methyl)amino]-6-methylquinolin-5-yl}acetamide], for which the melting point fell in the range of 193 to 195 °C.

In turn, `O=C(CC12CC3CC(CC(C3)C1)C2)Nc1c(Cl)ccc2ncccc12` [Example 5, 2-(1-Adamantyl)-N-(6-chloroquinolin-5-yl)acetamide] registered a melting point of 219 to 220 °C.

The compound `O=C(CC12CC3CC(CC(C3)C1)C2)Nc1cccc2nc(NCCCO)ccc12` [Example 6, 2-(1-Adamantyl)-N-{2-[(3-hydroxypropyl)amino]quinolin-5-yl}acetamide] gave an IC50 on P2X7 receptor of 8.91 nM.

As to `Cc1ccc2nc(NCCCO)ccc2c1NC(=O)CC12CC3CC(CC(C3)C1)C2` [Example 12, 2(1-Adamantyl)-N-{2-[(3-hydroxypropyl)amino]-6-methylquinolin-5-yl}acetamide], the melting point lay in the range of 168 to 174 °C.

Take `O=C(CC12CC3CC(CC(C3)C1)C2)Nc1cccc2cnccc12` [Example 160, 2-(1-Adamantyl)-N-isoquinolin-5-ylacetamide]: on P2X7 receptor, the IC50 was 79.4 nM.

The compound `CNCCCc1ccc2c(C(=O)NCC34CC5CC(CC(C5)C3)C4)c(Cl)ccc2n1` [Example 167, N-(1-Adamantylmethyl)-6-chloro-2-[3-(methylamino)propyl]quinoline-5-carboxamide Sesquihydrochloride] showed an IC50 on P2X7 receptor of 5.01 nM.

At P2X7 receptor, `O=C(NCC12CC3CC(CC(C3)C1)C2)c1cc(CCCNCCCO)nc2ccccc12` [Example 168, N-(1-Adamantylmethyl)-2-{3-[(3-hydroxypropyl)amino]propyl}quinoline-4-carboxamide Benzoic Acid Salt] had an IC50 of 25.1 nM.

`CNCCCNc1ccc2c(NC(=O)CC34CC5CC(CC(C5)C3)C4)c(C)ccc2n1` [Example 204, 2-(1-Adamantyl)-N-(6-methyl-2-{[3-(methylamino)propyl]amino}quinolin-5-yl)acetamide] yielded a melting point of 217 to 224 °C.
